What was measured:
[1] = cited from earlier work
[2] = system: croton oil-induced irritant contact dermatitis (ICD) in mice ears; test: Croton oil-induced irritant contact dermatitis (ICD) model, ear swelling; assay type: in vivo, Balb/c female mice
[3] = system: Bombyx mori (silkworm) ovary-derived cultured cell line cells; conditions: reported in the literature; cited from earlier work
IL-1α = IL-1α level in ear tissue of ICD mice (ELISA); assay type: in vivo, Balb/c female mice; conditions: t=6 h after croton oil, 0.5% ointment (FIG. 6A)
Protocol: (§1) The samples were homogenized, and protein concentration was measured by Bradford procedure. The concentration of cytokines was determined by ELISA method, using commercially available kits according to the Manufacturer's protocols (RayBiotech, GA, USA).
(§2) In order to study the underlying mechanism of the zinc-nocardamine complex, its assumed anti-inflammatory activity was tested by measuring the concentrations of various pro-inflammatory cytokines, in the ears, along the experimental protocol, specifically, IL-1α, IL-6, IL-17 and TNF-α. The concentration of these cytokines were measured in ear tissue that had been exposed to croton oil (at t=0) and was left untreated to t=6 h. The concentration was compared to the concentrations at t=6 h, in ears which were exposed at t=0, and treated with the complex at t=3 h.
(§3) The effect of ICD-induced inflammatory process on the concentration of IL-1α, IL-6, TNF-α and IL-17 within the ear tissue is shown in FIG. 6A-6D. […] The concentration of the cytokines was determined by ELISA method, using commercially available kits, according to the Manufacturer protocol (RayBiotech, GA, USA)

IL-6 = IL-6 level in ear tissue of ICD mice (ELISA); assay type: in vivo, Balb/c female mice; conditions: t=6 h after croton oil, 0.5% ointment (FIG. 6B)
Protocol: as §1, §2, §3

TNF-α = TNF-α level in ear tissue of ICD mice (ELISA); assay type: in vivo, Balb/c female mice; conditions: t=6 h after croton oil, 0.5% ointment (FIG. 6C)
Protocol: as §1, §2, §3

IL-17 = IL-17 level in ear tissue of ICD mice (ELISA); assay type: in vivo, Balb/c female mice; conditions: t=6 h after croton oil, 0.5% ointment (FIG. 6D)
Protocol: as §1, §2, §3

IL-13 = IL-13 level in ear tissue of ICD mice (ELISA); assay type: in vivo, Balb/c female mice; conditions: 0.5% ointment at t=3 h, measured at t=6 h (FIG. 7)
Protocol: as §1
The assumed anti-inflammatory activity of the zinc-nocardamine complex was tested by measuring the concentrations of various anti-inflammatory cytokines, specifically, IL-4, IL-10 and IL-13, in ear tissue of mice. The concentrations of these cytokines were measured and their pattern of change along the experiment was compared for each: at baseline t=0 (no exposure), at t=3 h after exposure to croton oil, at t=6 h after exposure to croton oil, and at 6 h after exposure to croton oil where these ears had been treated with the zinc-nocardamine complex at t=3 h after the exposure to the croton oil. […] The concentration of the cytokines was determined by ELISA method, using commercially available ELISA kits, according to the Manufacturer protocol (RayBiotech, GA, USA; Diaclone, Besançon, France).

E. coli (EPEC) = test: Bacterial growth curves (OD, 96-well plate, 24 h); assay type: cell-based, Escherichia coli; conditions: 1.7 mg/ml (FIG. 8A)
Protocol: (§4) The anti-bacterial effect of zinc-nocardamine was assessed on the following types of pathogenic bacteria: E. coli (Gram-negative), P. aeruginosa (Gram-negative) and S. aureus (Gram-positive) (isolated in Hadassah-Ein Karem Hospital). More specifically, the experiment was performed as following: Each bacterial strain was grown overnight at 37° C., under aeration of 200 rpm, in the appropriate medium (EPEC (E. coli)) and P. aeruginosa in LB broth, S. aureus in BHI broth. Both media were purchased from BD (NJ, USA). Series of three-fold consecutive dilutions were performed in a 96-well plate, and bacteria were then added to the wells at a final OD600 of 0.01. The experiments with all three strains were performed in duplicate. […] Then the plate was incubated in a plate reader for 24 h, and the kinetics of OD measurements were recorded every 20 minutes by Eon plate reader (BioTek, VE, USA). […]
(§5) The anti-bacterial effect of zinc-nocardamine was assessed on the following types of pathogenic bacteria: E. coli (Gram-negative), P. aeruginosa (Gram-negative) and S. aureus (Gram-positive) (isolated in Hadassah-Ein Karem Hospital). […] The plate was then incubated in a plate reader for 24 h, and the kinetics of OD measurements were recorded, every 20 minutes. […]

P. aeruginosa [4] = test: Bacterial growth curves (OD, 96-well plate, 24 h); assay type: cell-based, Pseudomonas aeruginosa; conditions: 1.7 mg/ml (FIG. 8B)
Protocol: as §4, §5

S. aureus [5] = test: Bacterial growth curves (OD, 96-well plate, 24 h); assay type: cell-based, Staphylococcus aureus
Protocol: as §4, §5

E. coli = test: Bactericidal activity (bacterial viability) on Petri dishes; assay type: cell-based, Escherichia coli; conditions: 5 mg/ml (FIG. 9A)
Protocol: (§6) The concentrations of zinc-nocardamine, in four quadrants (1-4) of a Petri dish, were set as follows: 1-0 mg/ml; 2-5 mg/ml; 3-1.7 mg/ml; 4-0.5 mg/ml.
(§7) The anti-bacterial effect of zinc-nocardamine was assessed on the following types of pathogenic bacteria: E. coli (Gram-negative), P. aeruginosa (Gram-negative) and S. aureus (Gram-positive) (isolated in Hadassah-Ein Karem Hospital). More specifically, the experiment was performed as following: Each bacterial strain was grown overnight at 37° C., under aeration of 200 rpm, in the appropriate medium (EPEC (E. coli)) and P. aeruginosa in LB broth, S. aureus in BHI broth. Both media were purchased from BD (NJ, USA). Series of three-fold consecutive dilutions were performed in a 96-well plate, and bacteria were then added to the wells at a final OD600 of 0.01. The experiments with all three strains were performed in duplicate. Zinc-nocardamine 10 mg/ml aqueous solution was prepared in advance; prior to the experiment it was diluted in the appropriate media in a ratio of 1:2, to obtain a stock concentration of 5 mg/ml. This stock was further diluted to 1.7, 0.5, 0.18, 0.06, 0.02, 0.002, 0.0007, and 0.0002 mg/ml and added to appropriate wells. Then the plate was incubated in a plate reader for 24 h, and the kinetics of OD measurements were recorded every 20 minutes by Eon plate reader (BioTek, VE, USA). […]

P. aeruginosa [6] = test: as above; assay type: cell-based, Pseudomonas aeruginosa; conditions: 5 mg/ml (FIG. 9B)
Protocol: as §6, §7

S. aureus [7] = test: as above; assay type: cell-based, Staphylococcus aureus; conditions: 5 mg/ml (FIG. 9C)
Protocol: as §6, §7

## CC(=O)N(O)CCCCCNC(=O)CCC(=O)N(O)CCCCCNC(=O)CCC(=O)N(O)CCCCCN [desferrioxamine B]
[1]
  water solubility: about 50 mg/ml

## O=C1CCC(=O)N(O)CCCCCNC(=O)CCC(=O)N(O)CCCCCNC(=O)CCC(=O)N(O)CCCCCN1 [nocardamine]
[2]; 0.5% w/w ointment applied 3 h after croton oil (FIG. 2B)
  recovery from ICD versus untreated and zinc-nocardamine groups: recovered better than the untreated ones, their recovery was much slower than the recovery observed in mice that received zinc-nocardamine complex
[1]
  water solubility (description): soluble in water with heating
[3]
  change of cell morphology: change the morphology of insect Bombyx mori (silkworm) ovary-derived cultured cell line cells into spindle-like configuration

## zinc-nocardamine complex
[2]; dose-response 0.1, 0.2, 0.5%, applied 3 h after irritant (FIG. 3)
  optimal concentration in Vaseline-based ointment: 0.5%
IL-1α
  concentration of IL-1α in ear tissue: reduced the concentration of the cytokines to nearly the basal level
IL-6
  concentration of IL-6 in ear tissue: reduced the concentration of the cytokines to nearly the basal level
TNF-α
  concentration of TNF-α in ear tissue: reduced the concentration of the cytokines to nearly the basal level
IL-17
  concentration of IL-17 in ear tissue: reduced the concentration of the cytokines to nearly the basal level
IL-13
  IL-13 level in ear tissue: restoring the IL-13 level back to its baseline level
E. coli (EPEC)
  growth inhibition of E. coli: growth inhibition was observed
P. aeruginosa [4]
  growth inhibition of P. aeruginosa: mild inhibition
S. aureus [5]; 0.5 mg/ml (FIG. 8C)
  growth inhibition of S. aureus: growth inhibition was observed
S. aureus [5]; 1.7 mg/ml (FIG. 8C)
  growth inhibition of S. aureus: growth inhibition was observed
E. coli
  bactericidal activity on E. coli: bactericidal activity was obtained
P. aeruginosa [6]
  bactericidal activity on P. aeruginosa: bactericidal activity was obtained
S. aureus [7]
  bactericidal activity on S. aureus: bactericidal activity was obtained

Reference: patent publication US20230181597A1, “METAL COMPLEXES OF NOCARDAMINE AND THEIR USE IN PHARMACEUTICAL COMPOSITIONS” (priority 2014, published 2023)
